These results are taken from patent publication US9132130B2, “Purine derivative and antitumor agent using same” (ZENYAKU KOGYO KABUSHIKI KAISHA, priority 2009, dated 2015).

Assay type in all cases: cell-based
Experiment [1] deals with P388 cells (mouse leukemia cells). The experiment is described as follows: in vitro antitumor activity test, P388 cells, XTT colorimetry. The settings on record: cultured 72 hours. The method, then:
P388 cells (mouse leukemia cells) passaged in the abdominal cavity of DBA/2 mice were extracted with ascitic fluid, and cultured in a RPMI 1640 medium (added with 10% fetal bovine serum, 25 mM HEPES, 0.1 mg/ml kanamycin and 5 μM 2-hydroxyethyldisulfide) at 37° C. in 5% carbon dioxide gas. After culturing for 16 hours, floating P388 cells were made into a single cell suspension of 4×10^4 cells per 1 ml using the same RPMI 1640 medium as given above. The test substances were dissolved in DMSO, then diluted in a RPMI 1640 medium (added with 10% fetal bovine serum, 25 mM HEPES and 0.1 mg/ml kanamycin) and prepared so that the concentrations were 2.0×10^−9 to 2.0×10^−4 M.
0.1 ml of the cell suspension was placed into each well of 96-well microplates, then 0.1 ml of the sample solutions were added, and cultured for 72 hours at 37° C. in 5% carbon dioxide gas.
(§1) Afterwards, the level of growth inhibition at various sample concentrations was obtained using XTT colorimetry, and concentrations at which growth was inhibited by 50% (GI50 values [μM]) were calculated.
(In general: Tetrazolium assays rely on reduction of a dye to a coloured formazan, in cell work by metabolically active cells.)

In experiment [2] the test system is PC-3 cells (human prostate cancer cells). The experiment is described as follows: in vitro antitumor activity test, PC-3 cells, XTT colorimetry. The settings on record: PC-3 human prostate cancer cells, cultured 72 hours. The method, then:
(§2) WiDr cells (human colon cancer cells) subcultured in a culture medium composed of a MEM medium added with 10% fetal bovine serum, 25 mM HEPES and 0.1 mg/ml kanamycin under the conditions of 37° C. and 5% carbon dioxide gas were made into single floating cells by treating with trypsin/EDTA, and a single cell suspension of 3×10^4 cells per 1 ml was prepared using the MEM medium (added with 10% fetal bovine serum, 25 mM HEPES and 0.1 mg/ml kanamycin). After dissolving the test compounds in DMSO, they were diluted in a RPMI 1640 medium (added with 10% fetal bovine serum, 25 mM HEPES and 0.1 mg/ml kanamycin) and prepared so that the concentrations were 2.0×10^−9 to 2.0×10^−4 M.
(§3) 0.1 ml of the cell suspension was placed into each well of 96-well microplates, cultured for 24 hours to allow the cells to adhere to the microplates, then 0.1 ml of the sample solutions were added, and cultured for 72 hours at 37° C. in 5% carbon dioxide gas.
as §1
(§4) In addition, cells other than WiDr cells that were used, and the condition for preparing each single cell suspension were as follows.
PC-3 cells (human prostate cancer cells): 2×10^4 cells/ml

Experiment [3] concerns A549 cells (human lung cancer cells). The experiment is described as follows: in vitro antitumor activity test, A549 cells, XTT colorimetry. The settings on record: cultured 72 hours. On the procedure:
as §2, §3, §1, §4
A549 cells (human lung cancer cells): 2×10^4 cells/ml

The test system of experiment [4] is B16F10 cells (mouse melanoma [malignant melanoma] cells). The experiment is described as follows: in vitro antitumor activity test, B16F10 cells, XTT colorimetry. The note with it: B16-F10, cultured 72 hours. The method, then: as §2, §3, §1, §4
B16F10 cells (mouse melanoma [malignant melanoma] cells): 1×10^4 cells/ml

Experiment [5] concerns WiDr cells (human colon cancer cells). Kind of experiment: in vitro antitumor activity test, WiDr cells, XTT colorimetry. The note with it: cultured 72 hours. The method, then:
as §2, §3, §1

For the compound `COc1ccc(CSc2nc(N(C)C(C)=O)c3ncn(C)c3n2)cc1` [Compound 61, 6-(N-acetyl-N-methylamino)-2-(4-methoxybenzylsulfanyl)-9-methyl-9H-purine], the concentration for 50% growth inhibition (GI50) was 330 nM in experiment [1]; 890 nM in experiment [2]; 520 nM in experiment [3]; 840 nM in experiment [4]; 460 nM in experiment [5].

In the case of `CCc1nc2c(N3CCOCC3)nc(SCc3ccc(C)cc3)nc2n1C` [Compound 8, 8-ethyl-9-methyl-2-(4-methylbenzylsulfanyl)-6-morpholino-9H-purine], the GI50 in experiment [1] came out at 1020 nM; in experiment [2], 610 nM; in experiment [3] it was 2200 nM; in experiment [4], 1700 nM; in experiment [5] it was 1470 nM.

On to `CCc1nc2c(N3CCOCC3)nc(SCc3ccc(OC)c(F)c3)nc2n1CC` [Compound 123, 8,9-diethyl-2-(3-fluoro-4-methoxybenzylsulfanyl)-6-morpholino-9H-purine], for which the GI50 in experiment [1] was 130 nM; in experiment [2], 240 nM; in experiment [3], 420 nM; in experiment [4], 370 nM; in experiment [5] it was 200 nM.

With `C=Cc1nc(SCc2ccc(OC)cc2)nc2c1ncn2C` [Compound 165, 2-(4-methoxybenzylsulfanyl)-9-methyl-6-vinyl-9H-purine], the GI50 was 260 nM in experiment [1]; 3200 nM in experiment [2]; 3300 nM in experiment [3]; 980 nM in experiment [4]; 4100 nM in experiment [5].

Take `C/C=C/c1nc(SCc2ccc(OC)c([N+](=O)[O-])c2)nc2c1ncn2C` [Compound 171, 2-(4-methoxy-3-nitrobenzylsulfanyl)-9-methyl-6-(1-trans-propenyl)-9H-purine]: the GI50 in experiment [1] amounted to 220 nM; in experiment [2], 470 nM; in experiment [3] it was 270 nM; in experiment [4], 560 nM; in experiment [5], 370 nM.

With `CCc1nc2c(N3CCOCC3)nc(SCc3ccc(OC)c(NC(=O)c4ccco4)c3)nc2n1C` [Compound 55, 8-ethyl-2-[3-(2-furylcarbonylamino)-4-methoxybenzylsulfanyl]-9-methyl-6-morpholino-9H-purine], the GI50 turned out to be 1050 nM in experiment [1]; 780 nM in experiment [2]; 1340 nM in experiment [3]; 1390 nM in experiment [4]; 1390 nM in experiment [5].

With `CCc1nc2c(N3C=COCC3)nc(SCc3ccc(OC)cc3)nc2n1CC` [Compound 158, 8,9-diethyl-6-(2,3-dihydro-[1,4]oxadin-4-yl)-2-(4-methoxybenzylsulfanyl)-9H-purine], the GI50 in experiment [1] was 240 nM; in experiment [2], 310 nM; in experiment [3], 410 nM; in experiment [4] it was 420 nM; in experiment [5] it was 350 nM.

For the compound `COc1ccc(CSc2nc(N3CCOCC3)c3ncn(C)c3n2)cc1N` [Compound 18, 2-(3-amino-4-methoxybenzylsulfanyl)-9-methyl-6-morpholino-9H-purine], the GI50 in experiment [1] was determined as 350 nM; in experiment [2], 690 nM; in experiment [3], 950 nM; in experiment [4], 1090 nM; in experiment [5], 3140 nM.

For `Sc1ncnc2nc[nH]c12` [Compound A, 6-mercaptopurine, reference compound], the GI50 is 22500 nM in experiment [1]; greater than 100000 nM in experiment [2]; greater than 100000 nM in experiment [3]; 22600 nM in experiment [4]; 70000 nM in experiment [5].

Regarding `COc1ccc(CSc2nc(N3CCOCC3)c3ncn(C)c3n2)cc1` [Compound 9, 2-(4-methoxybenzylsulfanyl)-9-methyl-6-morpholino-9H-purine], the GI50 in experiment [1] was 300 nM; in experiment [2], 380 nM; in experiment [3] it was 570 nM; in experiment [4] it was 1170 nM; in experiment [5], 400 nM.

As for `CCc1nc2c(N(C)C)nc(SCc3ccc(OC)c(NC(C)=O)c3)nc2n1C` [Compound 60, 2-(3-acetylamino-4-methoxybenzylsulfanyl)-6-dimethylamino-8-ethyl-9-methyl-9H-purine], the GI50 in experiment [1] worked out at 610 nM; in experiment [2] it was 870 nM; in experiment [3], 1400 nM; in experiment [4], 1000 nM; in experiment [5], 1300 nM.

For the compound `CCOc1ccc(CSc2nc(N3C=COCC3)c3ncn(CC)c3n2)cc1N` [Compound 156, 2-(3-amino-4-ethoxybenzylsulfanyl)-6-(2,3-dihydro-[1,4]oxadin-4-yl)-9-ethyl-9H-purine], the GI50 in experiment [1] stood at 740 nM; in experiment [2] it was 1040 nM; in experiment [3] it was 700 nM; in experiment [4], 1400 nM; in experiment [5], 3380 nM.

With `CCOc1ccc(CSc2nc(N(C)C)c3ncn(C)c3n2)cc1N` [Compound 140, 2-(3-amino-4-ethoxybenzylsulfanyl)-6-dimethylamino-9-methyl-9H-purine], the GI50 in experiment [1] is 50 nM; in experiment [2] it was 110 nM; in experiment [3], 90 nM; in experiment [4], 160 nM; in experiment [5], 360 nM.

As for `CCc1nc2c(N3CCOCC3)nc(SCc3ccc(OC)c(C#N)c3)nc2n1C` [Compound 51, 2-(3-cyano-4-methoxybenzylsulfanyl)-8-ethyl-9-methyl-6-morpholino-9H-purine], the GI50 amounted to 70 nM in experiment [1]; 100 nM in experiment [2]; 100 nM in experiment [3]; 380 nM in experiment [4]; 140 nM in experiment [5].

Consider `CCc1nc2c(N3CCOCC3)nc(SCCCc3ccc(OC)cc3)nc2n1C` [Compound 50, 8-ethyl-2-[3-(4-methoxyphenyl)propylsulfanyl]-9-methyl-6-morpholino-9H-purine], for which the GI50 is 380 nM in experiment [1]; 620 nM in experiment [2]; 890 nM in experiment [3]; 1430 nM in experiment [4]; 1020 nM in experiment [5].

Take `CCc1ccc(CSc2nc(N3CCOCC3)c3nc(CC)n(C)c3n2)cc1N` [Compound 90, 2-(3-amino-4-ethylbenzylsulfanyl)-8-ethyl-9-methyl-6-morpholino-9H-purine]: the GI50 in experiment [1] was determined as 520 nM; in experiment [2], 1730 nM; in experiment [3], 720 nM; in experiment [4], 1100 nM; in experiment [5], 1370 nM.

As for `COc1ccc(CSc2nc(-n3cccc3)c3ncn(C)c3n2)cc1N` [Compound 141, 2-(3-amino-4-methoxybenzylsulfanyl)-9-methyl-6-(1-pyrrolyl)-9H-purine], the GI50 amounted to 260 nM in experiment [1]; 470 nM in experiment [2]; 370 nM in experiment [3]; 410 nM in experiment [4]; 4850 nM in experiment [5].

On to `CCN(CC)c1nc(SCc2ccc(OC)cc2)nc2c1ncn2C` [Compound 25, 6-diethylamino-2-(4-methoxybenzylsulfanyl)-9-methyl-9H-purine], for which the GI50 in experiment [1] came out at 680 nM; in experiment [2], 1130 nM; in experiment [3], 950 nM; in experiment [4], 1380 nM; in experiment [5], 820 nM.

Regarding `COc1ccc(CSc2nc(N3CC=CC3)c3ncn(C)c3n2)cc1` [Compound 130, 2-(4-methoxybenzylsulfanyl)-9-methyl-6-(3-pyrrolin-1-yl)-9H-purine], the GI50 in experiment [1] came out at 250 nM; in experiment [2], 540 nM; in experiment [3], 400 nM; in experiment [4] it was 630 nM; in experiment [5] it was 280 nM.

In the case of `C=Cc1cc(CSc2nc(N3CCOCC3)c3nc(CC)n(C)c3n2)ccc1OC` [Compound 79, 8-ethyl-2-(4-methoxy-3-vinylbenzylsulfanyl)-9-methyl-6-morpholino-9H-purine], the GI50 in experiment [1] is 1000 nM; in experiment [2], 440 nM; in experiment [3], 1400 nM; in experiment [4], 1500 nM; in experiment [5] it was 1300 nM.

In the case of `CCn1cnc2c(N3C=COCC3)nc(SCc3ccc(OC)c(F)c3)nc21` [Compound 154, 6-(2,3-dihydro-[1,4]oxadin-4-yl)-9-ethyl-2-(3-fluoro-4-methoxybenzylsulfanyl)-9H-purine], the GI50 in experiment [1] was 90 nM; in experiment [2], 220 nM; in experiment [3], 100 nM; in experiment [4], 370 nM; in experiment [5] it was 170 nM.

Broadly, the GI50 is the concentration giving 50% growth inhibition. Low readings indicate greater sensitivity of the cells, high ones lower sensitivity of the cells.
